Legend:
Assay type in all cases: cell-based
[1] = system: Chikungunya virus (CHIKV); test: microbe, parasite or virus in culture; conditions: Chikungunya virus, Vero, 48 h, read-out: Percent viral inhibition CHKV
Marburg virus (MARV) = test: organism not typed; conditions: Vero, 72 h, read-out: Percent viral inhibition MARV
dengue virus (DENV) = test: microbe, parasite or virus in culture; conditions: Dengue virus, Vero, 120 h, read-out: Percent viral inhibition DENY

| SMILES | inhibition at 1 µM [1] [%] | inhibition at 1 µM (Marburg virus (MARV)) [%] | inhibition at 1 µM (dengue virus (DENV)) [%] |
| --- | --- | --- | --- |
| NC1(CCO)CCN(c2ncc(Oc3cc(CN4CCC(CC(=O)O)CC4)cc(-c4cc(Cl)cc(Cl)c4)n3)cn2)CC1 [Example 124, 2-(1-((2-((2-(4-amino-4-(2-hydroxyethyl)piperidin-1-yl)pyrimidin-5-yl)oxy)-6-(3,5-dichlorophenyl)pyridin-4-yl)methyl)piperidin-4-yl) acetic acid] | 21.2 | 63.8 | 1.28 |
| CN1CCCN(c2ncc(Oc3cc(CN4CCC(CC(=O)O)CC4)cc(-c4cc(Cl)cc(Cl)c4)n3)cn2)CC1 [Example 126, 2-(1-((2-(3,5-dichlorophenyl)-6-((2-(4-methyl-1,4-diazepan-1-yl)pyrimidin-5-yl)oxy)pyridin-4-yl)methyl)piperidin-4-yl)acetic acid] | 23.6 | 38.5 | 8.34 |
| CC(CC(=O)O)C1CN(Cc2cc(Oc3cnc(N4CCN(C)CC4)nc3)nc(-c3cc(Cl)cc(Cl)c3)c2)C1 (stereo not drawn) [Example 127, 3-(1-((2-(3,5-dichlorophenyl)-6-((2-(4-methylpiperazin-1-yl)pyrimidin-5-yl)oxy)pyridin-4-yl)methyl)azetidin-3-yl)butanoic acid] | 26 | 52.1 | 0 |
| CN1CCN(c2ncc(Oc3cc(CN4CCC(OCC(=O)O)C4)cc(-c4cc(Cl)cc(Cl)c4)n3)cn2)CC1 (stereo not drawn) [Example 128, 2-((1-((2-(3,5-dichlorophenyl)-6-((2-(4-methylpiperazin-1-yl)pyrimidin-5-yl)oxy)pyridin-4-yl)methyl)pyrrolidin-3-yl)oxy)acetic acid] | 3.67 | 51.4 | 7.97 |
| CN1CCN(c2ncc(Oc3cc(CN4CC5CC(CC(=O)O)CC5C4)cc(-c4cc(Cl)cc(Cl)c4)n3)cn2)CC1 (stereo not drawn) [Example 129, 2-(2-((2-(3,5-dichlorophenyl)-6-((2-(4-methylpiperazin-1-yl)pyrimidin-5-yl)oxy)pyridin-4-yl)methyl)octahydrocyclopenta[c]pyrrol-5-yl)acetic acid] | 23.6 | 29.8 | 38.5 |
| CN1CCN(c2ncc(Oc3cc(CN4CCC(CCC(=O)O)CC4)cc(-c4cc(Cl)cc(Cl)c4)n3)cn2)CC1 [Example 130, 3-(1-((2-(3,5-dichlorophenyl)-6-((2-(4-methylpiperazin-1-yl)pyrimidin-5-yl)oxy)pyridin-4-yl)methyl)piperidin-4-yl)propanoic acid] | 28.4 | 33.3 | 33 |
| CC(CC1CCN(Cc2cc(Oc3cnc(N4CCN(C)CC4)nc3)nc(-c3cc(Cl)cc(Cl)c3)c2)CC1)C(=O)O (stereo not drawn) [Example 131, 3-(1-((2-(3,5-dichlorophenyl)-6-((2-(4-methylpiperazin-1-yl)pyrimidin-5-yl)oxy)pyridin-4-yl)methyl)piperidin-4-yl)-2-methylpropanoic acid] | 3.11 | 52.4 | 20.7 |
| O=C(O)CC1CCN(Cc2cc(Oc3cnc(N4CCCNCC4)nc3)nc(-c3cc(Cl)cc(Cl)c3)c2)CC1 [Example 132, 2-(1-((2-((2-(1,4-diazepan-1-yl)pyrimidin-5-yl)oxy)-6-(3,5-dichlorophenyl)pyridin-4-yl)methyl)piperidin-4-yl) acetic acid] | 35.2 | 46.8 | 32.8 |
| CN1CC2CN(c3ncc(Oc4cc(CN5CCC(CC(=O)O)CC5)cc(-c5cc(Cl)cc(Cl)c5)n4)cn3)CC2C1 (stereo not drawn) [Example 133, 2-(1-((2-(3,5-dichlorophenyl)-6-((2-(5-methylhexahydropyrrolo[3,4-c]pyrrol-2(1H)-yl)pyrimidin-5-yl)oxy)pyridin-4-yl)methyl)piperidin-4-yl)acetic acid] | 43.4 | 54 | 47.8 |
| C[C@@H](CC1CCN(Cc2cc(Oc3cnc(N4CCN(C)CC4)nc3)nc(-c3cc(Cl)cc(Cl)c3)c2)CC1)C(=O)O [Example 134, (S)-3-(1-((2-(3,5-dichlorophenyl)-6-((2-(4-methylpiperazin-1-yl)pyrimidin-5-yl)oxy)pyridin-4-yl)methyl)piperidin-4-yl)-2-methylpropanoic acid] | 0 | 45.1 | 43.2 |
| CN1CCN(c2ncc(Oc3cc(CN4CCC5(CC4)CN(C(=O)CO)C5)cc(-c4cc(Cl)cc(Cl)c4)n3)cn2)CC1 [Example 135, 1-(7-((2-(3,5-dichlorophenyl)-6-((2-(4-methylpiperazin-1-yl)pyrimidin-5-yl)oxy)pyridin-4-yl)methyl)-2,7-diazaspiro[3.5]nonan-2-yl)-2-hydroxyethanone] | 12.8 | 51.3 | 56.2 |
| CN1CCN(c2ccc(Oc3cc(CN4CC[C@@H]5[C@H](CC4)[C@H]5C(=O)O)cc(-c4cc(Cl)cc(Cl)c4)n3)cn2)CC1 [Example 136, (1R,7S,8r)-4-((2-(3,5-dichlorophenyl)-6-((6-(4-methylpiperazin-1-yl)pyridin-3-yl)oxy)pyridin-4-yl)methyl)-4-azabicyclo[5.1.0]octane-8-carboxylic acid] | 39.8 | 57.8 | 18 |
| CC(O)CC1CCN(Cc2cc(Oc3cnc(N4CCN(C)CC4)nc3)nc(-c3cc(Cl)cc(Cl)c3)c2)CC1 (stereo not drawn) [Example 138, 1-(1-((2-(3,5-dichlorophenyl)-6-((2-(4-methylpiperazin-1-yl)pyrimidin-5-yl)oxy)pyridin-4-yl)methyl)piperidin-4-yl)propan-2-ol] | 21.7 | 32.4 | 54.9 |
| CN1CCCN(c2ncc(Oc3cc(CN4CCC(OCC(=O)O)CC4)cc(-c4cc(Cl)cc(Cl)c4)n3)cn2)CC1 [Example 140, 2-((1-((2-(3,5-dichlorophenyl)-6-((2-(4-methyl-1,4-diazepan-1-yl)pyrimidin-5-yl)oxy)pyridin-4-yl)methyl)piperidin-4-yl)oxy)acetic acid] | 32.7 | 51.5 | 14.1 |
| CN1CCN(c2ccc(Oc3cc(CN4CCC5(CC4)CNC(=O)OC5)cc(-c4cc(Cl)cc(Cl)c4)n3)cn2)CC1 [Example 141, 9-((2-(3,5-dichlorophenyl)-6-((6-(4-methylpiperazin-1-yl)pyridin-3-yl)oxy)pyridin-4-yl)methyl)-2-oxa-4,9-diazaspiro[5.5]undecan-3-one] | 20.9 | 66.6 | 27.7 |
| CN1CCN(c2ncc(Oc3cc(CN4CCC(CC(N)=O)CC4)cc(-c4cc(Cl)cc(Cl)c4)n3)cn2)CC1 [Example 142, 2-(1-((2-(3,5-dichlorophenyl)-6-((2-(4-methylpiperazin-1-yl)pyrimidin-5-yl)oxy)pyridin-4-yl)methyl)piperidin-4-yl)acetamide] | 15.4 | 49.1 | 51.5 |
| CN1CCN(c2ncc(Oc3cc(CN4CCC(OC5(C(=O)O)CC5)CC4)cc(-c4cc(Cl)cc(Cl)c4)n3)cn2)CC1 [Example 143, 1-((1-((2-(3,5-dichlorophenyl)-6-((2-(4-methylpiperazin-1-yl)pyrimidin-5-yl)oxy)pyridin-4-yl)methyl)piperidin-4-yl)oxy)cyclopropanecarboxylic acid] | 34.4 | 40.5 | 34.5 |
| COC1CN(C)CCN(c2ncc(Oc3cc(CN4CCC(CC(=O)O)CC4)cc(-c4cc(Cl)cc(Cl)c4)n3)cn2)C1 (stereo not drawn) [Example 144, 2-(1-((2-(3,5-dichlorophenyl)-6-((2-(6-methoxy-4-methyl-1,4-diazepan-1-yl)pyrimidin-5-yl)oxy)pyridin-4-yl)methyl)piperidin-4-yl)acetic acid] | 32.6 | 56.6 | 35 |
| CN1CCN(c2ncc(Oc3cc(CN4CCC(CC(=O)O)CC4)cc(-c4cc(Cl)cc(Cl)c4)n3)cn2)CC(C)(O)C1 (stereo not drawn) [Example 146, 2-(1-((2-(3,5-dichlorophenyl)-6-((2-(6-hydroxy-4,6-dimethyl-1,4-diazepan-1-yl)pyrimidin-5-yl)oxy)pyridin-4-yl)methyl)piperidin-4-yl)acetic acid] | 23.1 | 66.2 | 41.8 |
| CN1CCN(c2ncc(Oc3cc(CN4CCC(CC(=O)O)CC4)cc(-c4cc(Cl)cc(Cl)c4)n3)cn2)CC(F)C1 (stereo not drawn) [Example 147, 2-(1-((2-(3,5-dichlorophenyl)-6-((2-(6-fluoro-4-methyl-1,4-diazepan-1-yl)pyrimidin-5-yl)oxy)pyridin-4-yl)methyl)piperidin-4-yl)acetic acid] | 31.7 | 44.2 | 42.8 |
| CNC1CCN(c2ncc(Oc3cc(CN4CCC(CC(=O)O)CC4)cc(-c4cc(Cl)cc(Cl)c4)n3)cn2)C1 (stereo not drawn) [Example 152, 2-(1-((2-(3,5-dichlorophenyl)-6-((2-(3-(methylamino)pyrrolidin-1-yl)pyrimidin-5-yl)oxy)pyridin-4-yl)methyl)piperidin-4-yl)acetic acid] | 16.3 | 44.1 | 19 |
| CN1CCN(c2ncc(Oc3cc(CN4CCO[C@H](CCO)CC4)cc(-c4cc(Cl)cc(Cl)c4)n3)cn2)CC1 [Example 153, (S)-2-(4-((2-(3,5-dichlorophenyl)-6-((2-(4-methylpiperazin-1-yl)pyrimidin-5-yl)oxy)pyridin-4-yl)methyl)-1,4-oxazepan-7-yl)ethanol] | 14.1 | 56.8 | 41.5 |
| CC(=O)CC1CCN(Cc2cc(Oc3cnc(N4CCN(C)CC4)nc3)nc(-c3cc(Cl)cc(Cl)c3)c2)CC1 [Example 155, 1-(1-((2-(3,5-dichlorophenyl)-6-((2-(4-methylpiperazin-1-yl)pyrimidin-5-yl)oxy)pyridin-4-yl)methyl)piperidin-4-yl)propan-2-one] | 14.5 | 42 | 8.98 |

Source: US20230011571A1, “SMALL MOLECULE FURIN INHIBITORS FOR TREATING INFECTIOUS DISEASES” (BP Asset V, Inc., priority 2019, published 2023)
